Experimental data published in paper PMC9821843, “Powerful Potential of Polyfluoroalkyl-Containing 4-Arylhydrazinylidenepyrazol-3-ones for Pharmaceuticals” (Molecules, 2022).
In brackets after ≈: the same amount, converted by molar mass. Where two headings read alike, the source gives them in different places.

Key:
[1] = target: porcine liver carboxylesterase (CES, EC 3.1.1.1) (Sus scrofa, UniProt Q29550); test: Inhibition of porcine liver carboxylesterase (4-NPA colorimetric assay); assay type: biochemical; settings: 20 µM; n.a. = inactive at 20 µM; mean ± SEM, n = 3
Source text: (§1) The following enzymes were purchased from Sigma-Aldrich (Saint Louis, MO, USA): porcine liver carboxylesterase (CES, EC 3.1.1.1), human erythrocyte acetylcholinesterase (AChE, EC 3.1.1.7) and equine serum butyrylcholinesterase (BChE, EC 3.1.1.8). Substrates for CES, AChE and BChE were 4-nitrophenyl acetate (4-NPA), acetylthiocholine iodide (ATCh) and butyrylthiocholine iodide (BTCh), respectively, and the colorimetric reagent for the AChE and BChE assays was 5,5’-dithio-bis-(2-nitrobenzoic acid) (DTNB) (Sigma-Aldrich). All the kinetic experiments were performed under standard conditions, according to the protocol of IPAC RAS for a reversible inhibitors study.
The CES (porcine liver) activity was assessed colorimetrically in 0.1 M K/Na phosphate buffer pH 8.0, 25 °C, by measuring the absorbance of 4-nitrophenol at 405 nm. Final enzyme and substrate (4-NPA) concentrations were 0.02 unit/mL and 1 mM, respectively. Reagent blanks included all constituents except enzyme.
Test compounds were dissolved in DMSO. Reaction mixtures contained a final DMSO concentration of 2% (v/v). Enzyme inhibition was first assessed at a single concentration of 20 µM for each compound after a 5 min incubation at 25 °C in three separate experiments. […] Substrate was then added and residual enzyme activity relative to an inhibitor-free control was measured using a Bio-Rad Benchmark Plus microplate reader (Marnes-la-Coquette, France).
Measurements were performed in a Bio-Rad Benchmark Plus microplate reader. Each experiment was performed in triplicate. Plots, linear regressions and values of IC50, were determined using Origin 6.1 for Windows, OriginLab (Northampton, MA, USA). Results were calculated using GraphPad Prism version 6.05 for Windows, GraphPad Software (La Jolla, CA, USA) and presented as mean ± SEM.

[2] = target: T1, human erythrocyte acetylcholinesterase (AChE, EC 3.1.1.7) (Homo sapiens, UniProt P22303); test: Inhibition of human erythrocyte acetylcholinesterase (Ellman assay); assay type: biochemical; settings: read-out: Inhibition % at 20 µM, Human AChE
T1 construct: human erythrocyte acetylcholinesterase (AChE, EC 3.1.1.7); purchased Sigma-Aldrich (Saint Louis, MO, USA); host or cells: human erythrocytes
Source text: as §1
Reagent blanks consisted of reaction mixtures without enzyme to assess non-enzymatic hydrolysis of substrates.
Test compounds were dissolved in DMSO. Reaction mixtures contained a final DMSO concentration of 2% (v/v). […] Measurements were performed in a Bio-Rad Benchmark Plus microplate reader. Each experiment was performed in triplicate. Plots, linear regressions and values of IC50, were determined using Origin 6.1 for Windows, OriginLab (Northampton, MA, USA).

[3] = target: T2, equine serum butyrylcholinesterase (BChE, EC 3.1.1.8) (Equus caballus, UniProt P81908); test: Inhibition of equine serum butyrylcholinesterase (Ellman assay); assay type: biochemical; settings: read-out: Inhibition % at 20 µM, Equine BChE
T2 construct: equine serum butyrylcholinesterase (BChE, EC 3.1.1.8); purchased Sigma-Aldrich (Saint Louis, MO, USA); host or cells: equine serum
In short: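 Ellman colorimetric assay with 0.02 unit/mL BChE, 1 mM butyrylthiocholine iodide and 0.33 mM DTNB, 2% (v/v) DMSO final; substrate added after enzyme-compound mixing. Residual activity versus inhibitor-free control, blanks without enzyme; triplicates, IC50 by linear regression.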

[4] = Oxygen radical absorbance capacity (ORAC-FL) assay; settings: n.a. = inactive; i.t.s. = interferes with test system
In short: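 Fluorescein oxidative degradation by the peroxyl radical generator AAPH is monitored in the presence of test compound, a HAT-based read-out. Activity is expressed relative to Trolox as reference antioxidant.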

[5] = tested on: Neisseria gonorrhoeae ATCC 49226/NCTC 12700; test: Antibacterial activity against Neisseria gonorrhoeae; assay type: cell-based; settings: read-out: MIC against Neisseria gonorrhoeae
[6] = Acute toxicity evaluation in mice (ip); settings: CD-1, mouse, in vivo, 300 mg/kg
Procedure: The toxicity evaluation was performed on CD-1 mice. […] The tested compounds in 1% starch mucilage were injected intraperitoneally into three mice. Then, animals were observed during 14 days, the number of deaths was counted and % of viability calculated.

[7] = tested on: Sprague-Dawley (SD) rats; test: Hot plate test (analgesic activity); assay type: in vivo; settings: Rattus norvegicus, hot plate test, rats, ip, dose 15 mg/kg, n.a. = inactive (p > 0.05)
In short: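 Test compounds were given i.p. as suspensions in 1% starch mucilage to SD rats (3 male, 3 female per group), vehicle as negative control. At 1 and 2 h post-dose, latency to nociceptive response (jumping, hind paw licking/shaking) on a 50 °C plate was recorded, 30 s cutoff.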

[8] = tested on: Microsporum canis RCPF F 1643/1585; test: Antifungal susceptibility testing, M. canis; settings: Microsporum canis, RCPFF1643/1585, read-out: MIC for fungi strains inhibition, M. canis
Source text: (§3) The solvent was DMSO. […] In each test, a growth control and a sterility control were used.

[9] = tested on: Trichophyton rubrum RCPF F 1408; test: Antifungal susceptibility testing, T. rubrum; settings: Trichophyton rubrum, RCPFF1408, read-out: MIC for fungi strains inhibition, T. rubrum
Source text: as §3

[10] = tested on: Candida albicans RCPF Y 401/NCTC 885/653; test: Antifungal susceptibility testing, C. albicans; settings: NCTC885, read-out: MIC for fungi strains inhibition, C. albicans
Source text: as §3

[11] = tested on: Epidermophyton floccosum RCPF F 1659/17; test: Antifungal susceptibility testing, E. floccosum; settings: Epidermophyton floccosum, RCPFF1659/17, read-out: MIC for fungi strains inhibition, E. floccosum
Source text: as §3

[12] = tested on: HeLa tumor cell line; test: Cytotoxicity against HeLa cells (MTT assay); assay type: cell-based, human; settings: Homo sapiens, HeLa, 72 h, read-out: IC50, HeLa
Procedure: (§2) Cytotoxicity of compounds was evaluated using a culture of human dermal fibroblasts, which were isolated in the Laboratory of Cell Cultures of the Institute of Medical Cell Technologies, Ekaterinburg, Russia and a HeLa tumor cell line obtained at the shared research facility «Vertebrate cell culture collection» of the Institute of Cytology of the Russian Academy of Sciences, St. Petersburg, Russia. Cells were seeded in 96-well plates in the inoculum dose of 2 × 10^5 cells/mL and cultured for 24 h in DMEM, with 1% glutamine in the presence of 10% fetal bovine serum and gentamicin (50 mg/L) at 37 °C, with humidified atmosphere of 5% CO2. Then compounds, which were dissolved in DMSO, were added to the wells at the final concentrations of 10^–7, 10^–6, 10^–5 and 10^–4 M. The cells were incubated with compounds for 72 h, after which cell viability was assessed using the standard MTT assay. The assay was carried out in four replicates with negative (culture medium), positive (solution of the cytotoxic drug camptothecin at a concentration of 3 mM) controls and the solvent control (DMSO). The results of the MTT assay were evaluated on a Tecan Infinite M200 PRO (Tecan Austria GmbH, Grödig, Austria) plate spectrophotometer by comparing the optical density of a formazan solution at 570 nm in the assay and control wells. The half maximal inhibitory concentrations (IC50) were calculated by AAT Bioquest-calculator (https://www.aatbio.com/tools/ic50-calculator (accessed on 14 November 2022)).

[13] = tested on: human dermal fibroblasts; test: Cytotoxicity against human dermal fibroblasts (MTT assay); assay type: cell-based; settings: Fibroblast, 72 h, read-out: IC50, Human Dermal Fibroblasts
Procedure: as §2

[14] = ABTS radical cation scavenging activity assay; set-up: key to ABTS•+-scavenging activity, TEAC (trolox equivalent antioxidant capacity): TEAC = ratio of compound slope to Trolox slope vs ABTS absorbance; settings: mean ± SEM; for ABTS•+-scavenging activity, TEAC (trolox equivalent antioxidant capacity): n.a. = inactive
In short: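 ABTS•+ (from 7 mM ABTS plus 2.45 mM persulfate) mixed with compound, 5 × 10^–7–4 × 10^–4 M, 1 h at 30 °C; absorbance decrease read at 734 nm. TEAC from slope ratio versus Trolox; IC50 as 50% radical reduction for compounds exceeding 60% reduction at 100 µM.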

[15] = Ferric reducing antioxidant power (FRAP) assay; settings: 20 μM; n.a. = inactive
Source text: The FRAP assay measures the ability of anti-oxidants to reduce the ferric 2,4,6-tripyridyl-s-triazine complex [Fe(TPTZ)2]^3+ to the intensely blue ferrous colored complex [Fe(TPTZ)2]^2+ with an absorption maximum at λ = 593 nm. The reducing ability of a compound is an indicator of its potential anti-oxidant activity. 2,4,6-Tris(pyridin-2-yl)-1,3,5-triazine (TPTZ), FeCl3·6H2O, Trolox and DMSO were obtained from Sigma-Aldrich Chemical Co (St. Louis, MO, USA).
The ferric reducing ability of the compounds was determined by the method in microplate adapted version described in [116]. The FRAP reagent was prepared by mixing acetate buffer (0.3 M, pH 3.6), TPTZ (10 mM in 40 mM HCl) and FeCl3·6H2O (20 mM in distilled water) in a ratio of 10:1:1 immediately before use. Compounds were dissolved in DMSO and tested in the concentration 20 μM. The solvent content in the reaction mixture was 4% (v/v). The test compounds (10 μL of 0.5 mM solution) were added to the FRAP reagent solution (240 μL) and mixed thoroughly. The reaction was carried out at 37 °C in the dark; the incubation time was 1 h. The absorbance at 600 nm was monitored spectrophotometrically by a FLUOStar OPTIMA microplate reader (BMG Labtech, Ortenberg, Germany) at 37 °C. Trolox was used as a reference compound. Values were obtained from four replicates of each sample in three independent experiments.
The ferric reducing ability of compounds was expressed as TE units (antioxidant activity in Trolox equivalent), the values calculated as the ratio of the concentrations of Trolox and the test compound resulting in the same effect. The calculations were carried out using Origin 6.1 for Windows. Results were presented as mean ± SEM, calculated using GraphPad Prism version 6.05 for Windows, GraphPad Software.

[16] = 1 h, read-out: Latent Period Prolongation, % 1 h
[17] = 2 h, read-out: Latent Period Prolongation, % 2 h

porcine liver carboxylesterase (CES, EC 3.1.1.1), sequence (Q29550 19-566): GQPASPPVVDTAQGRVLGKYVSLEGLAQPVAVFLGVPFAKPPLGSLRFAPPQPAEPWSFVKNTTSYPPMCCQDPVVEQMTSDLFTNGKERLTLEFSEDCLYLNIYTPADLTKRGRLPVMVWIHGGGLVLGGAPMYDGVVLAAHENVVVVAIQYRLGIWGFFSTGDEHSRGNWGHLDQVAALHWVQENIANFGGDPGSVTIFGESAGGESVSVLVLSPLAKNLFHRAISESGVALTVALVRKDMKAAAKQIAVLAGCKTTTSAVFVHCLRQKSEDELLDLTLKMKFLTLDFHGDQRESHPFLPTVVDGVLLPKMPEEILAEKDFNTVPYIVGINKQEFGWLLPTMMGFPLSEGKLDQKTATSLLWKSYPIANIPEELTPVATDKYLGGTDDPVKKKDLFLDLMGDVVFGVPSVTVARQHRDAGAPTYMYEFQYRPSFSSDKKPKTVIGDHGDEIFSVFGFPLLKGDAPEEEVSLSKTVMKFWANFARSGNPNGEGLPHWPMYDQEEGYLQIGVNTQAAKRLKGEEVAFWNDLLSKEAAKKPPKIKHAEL
T1 sequence (P22303 32-617 isoform P22303-2 limits assumed): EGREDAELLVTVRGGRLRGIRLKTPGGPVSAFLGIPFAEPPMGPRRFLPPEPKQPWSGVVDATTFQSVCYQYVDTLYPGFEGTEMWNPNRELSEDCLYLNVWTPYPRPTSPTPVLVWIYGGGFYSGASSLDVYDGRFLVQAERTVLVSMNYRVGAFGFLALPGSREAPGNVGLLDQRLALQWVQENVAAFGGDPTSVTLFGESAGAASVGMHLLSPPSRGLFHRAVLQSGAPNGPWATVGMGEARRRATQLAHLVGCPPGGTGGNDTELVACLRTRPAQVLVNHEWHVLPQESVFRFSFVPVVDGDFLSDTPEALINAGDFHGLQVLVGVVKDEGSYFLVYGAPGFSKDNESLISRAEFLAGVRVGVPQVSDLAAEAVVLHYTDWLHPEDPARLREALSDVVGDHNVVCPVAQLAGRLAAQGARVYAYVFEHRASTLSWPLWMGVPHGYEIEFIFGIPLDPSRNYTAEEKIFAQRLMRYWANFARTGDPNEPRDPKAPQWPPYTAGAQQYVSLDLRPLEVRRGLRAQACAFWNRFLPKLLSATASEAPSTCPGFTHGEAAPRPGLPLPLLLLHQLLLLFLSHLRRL
T2 sequence (P81908 whole entry): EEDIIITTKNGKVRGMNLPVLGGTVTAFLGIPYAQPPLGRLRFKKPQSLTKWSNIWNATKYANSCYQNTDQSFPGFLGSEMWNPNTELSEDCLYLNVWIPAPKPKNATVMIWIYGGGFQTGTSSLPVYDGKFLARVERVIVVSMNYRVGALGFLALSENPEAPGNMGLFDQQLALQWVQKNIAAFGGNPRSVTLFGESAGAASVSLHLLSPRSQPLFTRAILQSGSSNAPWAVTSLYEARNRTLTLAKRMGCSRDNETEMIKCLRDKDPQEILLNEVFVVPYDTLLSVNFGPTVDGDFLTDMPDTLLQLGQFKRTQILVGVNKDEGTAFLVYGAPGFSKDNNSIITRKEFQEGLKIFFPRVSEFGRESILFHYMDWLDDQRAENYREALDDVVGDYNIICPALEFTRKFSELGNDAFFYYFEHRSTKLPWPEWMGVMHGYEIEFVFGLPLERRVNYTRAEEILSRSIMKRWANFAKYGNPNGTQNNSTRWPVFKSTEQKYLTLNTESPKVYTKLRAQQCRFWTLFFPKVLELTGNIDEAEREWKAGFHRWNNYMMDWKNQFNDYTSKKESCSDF

Work on `O=C1/C(=N\Nc2ccc(Br)cc2)C(C(F)(F)F)=NN1c1ccccc1` [5k, (4Z)-4-[2-(4-Bromophenyl)hydrazinylidene]-2-phenyl-5-(trifluoromethyl)-2,4-dihydro-3H-pyrazol-3-one] yielded an inhibition at 20 µM [1] of 23.2 ± 2%, an inhibition at 20 µM [2] of 5.4 ± 0.9% and an inhibition at 20 µM [3] of 6 ± 1.1%. For the same compound, the “ORAC-FL (TE, antioxidant activity in Trolox equivalents)” value (shortened to “ORAC-FL”) [4] was “i.t.s”, the MIC [5] was 31.2 µg/mL (≈ 75.9 µM) and the survival at 14 days [6] was 100%. It also gave a change in vivo at 15 mg/kg [7, 16] of 89%, a change in vivo at 15 mg/kg [7, 17] of 76% and an MIC [8] greater than 200 µg/mL. For the same compound, the MIC [9] was greater than 200 µg/mL, the MIC [10] was greater than 200 µg/mL and the MIC [11] was greater than 200 µg/mL.

`CS(=O)(=O)c1ccc(N/N=C2\C(=O)N(c3ccccc3)N=C2C(F)(F)C(F)(F)F)cc1` [6h, (4Z)-4-(2-[4-(Methylsulfonyl)phenyl]hydrazinylidene)-5-(pentafluoroethyl)-2-phenyl-2,4-dihydro-3H-pyrazol-3-one] gave an inhibition at 20 µM [1] of 30.8 ± 2.7%, an inhibition at 20 µM [2] of 4.1 ± 0.8% and an inhibition at 20 µM [3] of 5.2 ± 0.9%. The “ORAC-FL” value [4] was “i.t.s”, the MIC [5] was 250 µg/mL (≈ 543 µM) and the survival at 14 days [6] was 100%. For the same compound, the change in vivo at 15 mg/kg [7, 16] was 80%, the change in vivo at 15 mg/kg [7, 17] was 98% and the MIC [8] was greater than 200 µg/mL. The MIC [9] was greater than 200 µg/mL, the MIC [10] was greater than 200 µg/mL and the MIC [11] was greater than 200 µg/mL.

Compound `CC[C@@]1(O)C(=O)OCc2c1cc1n(c2=O)Cc2cc3ccccc3nc2-1` [Camptothecin, reference compound] has an IC50 [12] of 1.08 ± 0.98 µM and an IC50 [13] of 5.38 ± 0.48 µM.

`COc1cccc2c1C(=O)c1c(O)c3c(c(O)c1C2=O)C[C@@](O)(C(=O)CO)C[C@@H]3O[C@H]1C[C@H](N)[C@H](O)[C@H](C)O1` [Doxorubicin, reference compound] showed an IC50 ([12]; MTT, n.a. = inactive) of 4.25 ± 0.55 µM and an IC50 ([13]; MTT, n.a. = inactive) of 2.72 ± 0.26 µM.

In the case of `CC1=NN(c2ccccc2)C(=O)C1` [Edaravone, reference compound], the IC50 [14] is reported as 21.4 ± 1.8 µM, the “ABTS•+-scavenging activity, TEAC (trolox equivalent antioxidant capacity)” value [14] is reported as 0.96 ± 0.04 and the “FRAP (TE, antioxidant activity in Trolox equivalents)” value [15] is reported as 0.80 ± 0.01. The “ORAC-FL” value [4] was 3.71 ± 0.06.

In the case of `Cc1c(C)c2c(c(C)c1O)CCC(C)(C(=O)O)O2` (stereo not drawn) [Trolox, 6-hydroxy-2,5,7,8-tetramethychroman-2-carboxylic acid, reference compound], the IC50 [14] is reported as 19.7 ± 0.8 µM, the “ABTS•+-scavenging activity, TEAC (trolox equivalent antioxidant capacity)” value [14] is reported as 1.0 and the “FRAP (TE, antioxidant activity in Trolox equivalents)” value [15] is reported as 1.0. The “ORAC-FL” value [4] was 1.0.
